{"source": "patent US10004222B2", "about": "“Small molecule ice recrystallization inhibitors and methods of use thereof” (THE UNIVERSITY OF OTTAWA, priority 2012, dated 2018)", "test_system": "CD34+ cells (hematopoietic stem cells)", "experiment": "post-thaw viability of CD34+ cells of cryopreserved umbilical cord blood, flow cytometry", "format": "cell-based, human", "conditions": "for Post-Thaw Viab.: UCB Unit 27; for CD34+ cell viability compared with control: vs control that contained 10% DMSO only", "description": "Whole umbilical cord blood (UCB) should be stored at room temperature (15-25° C.) and processed within 48 hrs of collection. UCB is removed from collection bag and spilt in equal parts into 50 mL Falcon tubes. No more than 25 mL of UCB should be added per Falcon tube. UCB is diluted with 6% hetastarch (Hespan) to obtain a final concentration of 1% hetastarch and incubated for 10 minutes at room temperature. The tubes are then centrifuged at 50 g at 10° C. for 15-20 minutes, depending on volume. The centrifuge should not brake to stop. For total volumes of 30 mL, 15-17 minute centrifugation is utilized and for total volumes of 35 mL, 17-20 minute centrifugation is utilized. The supernatant and buffy coat (plasma and leukocytes) are removed carefully (not collecting RBCs) from the tubes and collected into new 50 mL Falcon tubes. These tubes are centrifuged at 400 g and 10° C. for 10 mins to pellet cells. The centrifuge brake can now be utilized. Plasma is removed and kept in new 50 mL Falcon tubes on ice. The cell pellets resuspended and combined in plasma to a total volume of 20 mL to generate leukocyte concentrate (LC). The LC is kept on ice for the duration of its use. Total mononuclear (CD45^+) and CD34^+ (hematopoetic stem cells) cell concentrations and viability are determined by flow cytometry (see Flow Cytometry procedure below). Aliquots of LC (50,000 CD34^+ cells) are utilized for cryopreservation experiments (see Cryopreservation Experiments procedure below).\nAliquots of LC (50,000 CD34^+ cells) are added to 2.0 mL cryovials. For each experiment, four cryovials are prepared (two for post-thaw viability analysis using flow cytometry and two for functionality analysis using the colony forming unit assay). Cryovials are kept on ice until placement in −80° C. freezer. Cryovials are centrifuged at 400 g and 10° C. for 5 minutes to pellet cells. After centrifugation, the time taken until placement in −80° C. freezer should not exceed 10 minutes. Supernatant is removed by aspiration or by decanting, but preferably by aspiration. Plasma (volume depends on desired cryosolution concentration) is added and cells are suspended by pipetting. Pre-made cryosolutions (see Cryosolutions) are added (volume depends on desired cryosolution concentration) and mixed by pipetting. Cryovials are placed in a Mr. Frosty® rate controlled freezing container which is then placed in a −80° C. freezer for 24 hours. By placing the cryovials in the freezing container, their contents undergo a cooling rate of about −1° C. per minute. After 24 hours, the cryovials are transferred to a liquid nitrogen dewar for storage until thawed for analysis.\nCryosolutions are prepared in distilled autoclaved water supplemented with 0.9% saline and 5% dextran for cryopreservation experiments and diluted with different volumes of plasma in cryovials depending on desired concentration of ice recrystallization inhibitor. N-(4-chlorophenyl)-D-gluconamide (4a) and N-(2-fluorophenyl)-D-gluconamide (2a) are prepared at 25 mM and N-(4-methoxyphenyl)-D-gluconamide (3a) and N-(2,6-difluorobenzyl)-D-gluconamide (1b) are prepared at 55 mM. 100, 50, 33 or 20 μL of 25 mM N-(4-chlorophenyl)-D-gluconamide (4a) or N-(2-fluorophenyl)-D-gluconamide (2a) are added to cryovials containing 50,000 CD34^+ cells suspended in 0, 50, 67, or 80 μL of plasma, respectively, for a final IRI concentration of 25, 12.5, 8 or 5 mM, respectively. 100, 50, 33 or 20 μL of 55 mM N-(4-methoxyphenyl)-D-gluconamide (3a) or N-(2,6-difluorobenzyl)-D-gluconamide (1b) are added to cryovials containing 50,000 CD34^+ cells suspended in 0, 50, 67, or 80 μL of plasma, respectively, for a final IRI concentration of […], 18 or 11 mM, respectively.\nTotal mononuclear cell (CD45+) and progenitor cell (CD34+) viability is assessed by flow cytometry using International Society of Hematotherapy and Graft Engineering (ISHAGE) guidelines (J. Hematother. Stem Cell Res. 1996, 5, 213-226). […]"}
{"smiles": "O=C(NCc1c(F)cccc1F)[C@H](O)[C@@H](O)[C@H](O)[C@H](O)CO", "note": "[(1b), N-(2,6-difluorobenzyl)-D-gluconamide]", "values": [{"measurement": "Post-Thaw Viab.", "setting": "11 mM IRI", "value": 57, "unit": "%"}, {"measurement": "CD34+ cell viability compared with control", "value": "substantially similar to the control"}]}
{"smiles": "O=C(Nc1ccccc1F)[C@H](O)[C@@H](O)[C@H](O)[C@H](O)CO", "note": "[(2a), N-(2-fluorophenyl)-D-gluconamide]", "values": [{"measurement": "Post-Thaw Viab.", "setting": "5 mM IRI", "value": 88, "unit": "%"}, {"measurement": "CD34+ cell viability compared with control", "value": "substantially similar to the control"}]}
{"smiles": "COc1ccc(NC(=O)[C@H](O)[C@@H](O)[C@H](O)[C@H](O)CO)cc1", "note": "[(3a), N-(4-methoxyphenyl)-D-gluconamide]", "values": [{"measurement": "Post-Thaw Viab.", "setting": "11 mM IRI", "value": 78, "unit": "%"}, {"measurement": "CD34+ cell viability compared with control", "value": "substantially similar to the control"}]}
{"smiles": "O=C(Nc1ccc(Cl)cc1)[C@H](O)[C@@H](O)[C@H](O)[C@H](O)CO", "note": "[(4a), N-(4-chlorophenyl)-D-gluconamide]", "values": [{"measurement": "Post-Thaw Viab.", "setting": "5 mM IRI", "value": 88, "unit": "%"}, {"measurement": "CD34+ cell viability compared with control", "value": "substantially similar to the control"}]}
